Assays:
[1] = target: T1, Avi-KRAS G12R (1-169) GppNHp/RAF1 RBD-3xFLAG (52-151) (Homo sapiens, UniProt P01116, G12R); experiment: Raf1-KRAS G12R-GppNHP disruption HTRF assay (Biological Example 1); format: binding
T1 construct: Avi-KRAS G12R (1-169)
Outline: (§1)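 Protein mix, 1 h RT, 700 rpm; reagent mix, 1 h RT, 700 rpm; HTRF read. Buffer Tris pH 7.5/NaCl/MgCl2/BSA/Tween, 10% DMSO. Output % activity, DMSO = 100%.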

[2] = target: T2, Avi-KRAS G12V (1-169) GppNHp/RAF1 RBD-3xFLAG (52-151) (Homo sapiens, UniProt P01116, G12V); experiment: Raf1-KRAS G12V-GppNHP disruption HTRF assay (Biological Example 1); format: binding
T2 construct: Avi-KRAS G12V (1-169)
Outline: as §1

GP2d cells (KRAS G12D) = experiment: Cell-based pERK HTRF assay in GP2d cell (Biological Example 2); conditions: GP2d (KRAS G12D) cells, pERK HTRF
Outline: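 Phospho-ERK in lysed cells was detected by HTRF using Eu cryptate and d2 antibodies, read between 4 and 24 h at room temperature. Prior to lysis, KRAS G12D GP2d cells, seeded the day before in DMEM with 10% FBS, were exposed to compounds for 60 min. Compounds were tested as 9-point half-log curves from 1 μM or 100 nM top, with 0.25% DMSO.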

SW620 cells (KRAS G12V) = experiment: Cell-based pERK HTRF assay in SW620 cell (Biological Example 4); conditions: pERK HTRF
Outline: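 SW620 (KRAS G12V) cells seeded at 3×10^4/well in RPMI, 10% FBS, then treated next day for 4 h with a 9-point half-log series from 1 μM top (0.25% DMSO). Lysates analyzed for pERK by HTRF (Eu cryptate/d2 antibodies, 4–24 h at room temperature), excitation 320 nm, emission 615 nm.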

[3] = target: T3, Avi-KRAS WT (1-169) GppNHp/RAF1 RBD-3xFLAG (52-151) (Homo sapiens, UniProt P01116); experiment: Raf1-KRAS WT-GppNHP disruption HTRF assay (Biological Example 1); format: binding
T3 construct: Avi-KRAS WT (1-169)
Outline: as §1

[4] = target: T4, Avi-KRAS G12D (1-169) GppNHp/RAF1 RBD-3xFLAG (52-151) (Homo sapiens, UniProt P01116, G12D); experiment: Raf1-KRAS G12D-GppNHP disruption HTRF assay (Biological Example 1); format: binding
T4 construct: Avi-KRAS G12D (1-169)
Outline: as §1

[5] = KRAS G12R, GppNHp-loaded, class symbols
[6] = KRAS G12V, GppNHp-loaded, class symbols
[7] = Homo sapiens, SW-620, SW620 (KRAS G12V) cells, class symbols
[8] = KRAS WT, GppNHp-loaded, class symbols
[9] = KRAS G12D, GppNHp-loaded, class symbols
[10] = Homo sapiens, SW-620, SW620 (KRAS G12V) cells

T3 sequence (P01116 1-169 isoform P01116-2): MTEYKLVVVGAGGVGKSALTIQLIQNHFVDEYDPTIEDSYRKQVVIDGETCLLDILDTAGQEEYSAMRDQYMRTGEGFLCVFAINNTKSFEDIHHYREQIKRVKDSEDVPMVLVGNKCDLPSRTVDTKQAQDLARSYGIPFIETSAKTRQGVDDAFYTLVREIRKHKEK
T4 sequence (P01116 1-169 isoform P01116-2 G12D): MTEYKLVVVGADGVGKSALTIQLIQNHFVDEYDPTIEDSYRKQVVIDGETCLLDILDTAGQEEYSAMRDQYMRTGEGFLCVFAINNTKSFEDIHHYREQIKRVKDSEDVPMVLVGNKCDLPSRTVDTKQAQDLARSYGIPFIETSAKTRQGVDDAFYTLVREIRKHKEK
T1 sequence (P01116 1-169 isoform P01116-2 G12R): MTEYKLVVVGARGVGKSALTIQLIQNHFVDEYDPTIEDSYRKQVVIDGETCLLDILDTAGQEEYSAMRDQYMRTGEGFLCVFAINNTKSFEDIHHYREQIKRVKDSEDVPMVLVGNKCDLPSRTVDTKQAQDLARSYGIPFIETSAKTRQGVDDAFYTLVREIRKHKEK
T2 sequence (P01116 1-169 isoform P01116-2 G12V): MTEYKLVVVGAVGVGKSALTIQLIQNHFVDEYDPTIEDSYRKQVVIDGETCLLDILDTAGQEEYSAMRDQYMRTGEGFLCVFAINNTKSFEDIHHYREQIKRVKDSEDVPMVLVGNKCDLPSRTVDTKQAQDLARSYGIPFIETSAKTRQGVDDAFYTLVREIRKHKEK

Structure (SMILES)	IC50 [1, 5]	IC50 [2, 6]	IC50 (GP2d cells (KRAS G12D); GP2d, class symbols)	IC50 (SW620 cells (KRAS G12V); [7])	IC50 [3, 8]	IC50 [4, 9]	IC50 ([1]; KRAS G12R-GppNHp/RAF1 RBD HTRF)	IC50 ([2]; KRAS G12V-GppNHp/RAF1 RBD HTRF)	IC50 (GP2d cells (KRAS G12D); GP2d)	IC50 (SW620 cells (KRAS G12V); [10])	IC50 ([3]; KRAS WT-GppNHp/RAF1 RBD HTRF)	IC50 ([4]; KRAS G12D-GppNHp/RAF1 RBD HTRF)	other results
CN(c1nc(OC[C@@]23CCCN2C[C@H](F)C3)nc2c(F)c(-c3ccc(F)c4sc(N)c(C#N)c34)c(C(F)(F)F)cc12)[C@@H]1C[C@H]2COC(=O)N2C1 [Compound 476]	–	–	–	–	–	–	100 to 1000 nM	100 to 1000 nM	< 100 nM	< 100 nM	100 to 1000 nM	100 to 1000 nM	–
N#Cc1c(N)sc2c(F)ccc(-c3c(C(F)(F)F)cc4c(N5CCCC6(CC(O)C6)C5)nc(OC[C@@]56CCCN5C[C@H](F)C6)nc4c3F)c12 (stereo partly drawn) [Compound 231]	–	–	–	–	–	–	–	–	–	–	–	–	IC50 ([1]; KRAS G12R, GppNHp-loaded, Table 11): 1000 to 10000 nM; IC50 ([2]; KRAS G12V, GppNHp-loaded, Table 11): > 10000 nM; IC50 (GP2d cells (KRAS G12D)): 100 to 1000 nM; IC50 (SW620 cells (KRAS G12V); SW620 (KRAS G12V) cells): 100 to 1000 nM; IC50 ([3]; KRAS WT, GppNHp-loaded, Table 11): 1000 to 10000 nM; IC50 ([4]; KRAS G12D, GppNHp-loaded, Table 11): 1000 to 10000 nM
C[C@]1(CO)CCN1c1nc(OC[C@@]23CCCN2C[C@H](F)C3)nc2c(F)c(-c3ccc(F)c4sc(N)c(C#N)c34)c(C(F)(F)F)cc12 [Compound 429]	–	–	–	–	–	–	1000 to 10000 nM	1000 to 10000 nM	< 100 nM	< 100 nM	1000 to 10000 nM	100 to 1000 nM	–
CC(=O)N1C[C@@H]2CCCN(c3nc(OC[C@@]45CCCN4C[C@H](F)C5)nc4c(F)c(-c5ccc(F)c6sc(N)c(C#N)c56)c(C(F)(F)F)cc34)[C@@H]2C1 [Compound 451]	–	–	–	–	–	–	1000 to 10000 nM	1000 to 10000 nM	< 100 nM	100 to 1000 nM	100 to 1000 nM	100 to 1000 nM	–
CN(C)C(=O)c1nc2c(s1)CCN(c1nc(OCC34CCCN3CC(F)C4)nc3c(F)c(-c4ccc(F)c5sc(N)c(C#N)c45)c(C(F)(F)F)cc13)C2 (stereo not drawn) [Compound 445]	–	–	–	–	–	–	> 10000 nM	> 10000 nM	> 1000 nM	100 to 1000 nM	> 10000 nM	1000 to 10000 nM	–

Further lines, with some results ahead:

IC50 [1, 5]	IC50 [2, 6]	IC50 (GP2d cells (KRAS G12D); GP2d, class symbols)	IC50 (SW620 cells (KRAS G12V); [7])	IC50 [3, 8]	IC50 [4, 9]	IC50 ([1]; KRAS G12R-GppNHp/RAF1 RBD HTRF)	IC50 ([2]; KRAS G12V-GppNHp/RAF1 RBD HTRF)	IC50 (GP2d cells (KRAS G12D); GP2d)	IC50 (SW620 cells (KRAS G12V); [10])	IC50 ([3]; KRAS WT-GppNHp/RAF1 RBD HTRF)	IC50 ([4]; KRAS G12D-GppNHp/RAF1 RBD HTRF)	Structure (SMILES)	other results
100 to 1000 nM	100 to 1000 nM	< 100 nM	< 100 nM	100 to 1000 nM	100 to 1000 nM	–	–	–	–	–	–	CCN1C[C@H](N(CC)c2nc(OC[C@@]34CCCN3C[C@H](F)C4)nc3c(F)c(-c4ccc(F)c5sc(N)c(C#N)c45)c(C(F)(F)F)cc23)CC1=O (atropisomer, axis not shown) [Compound 699]	–
< 100 nM	< 100 nM	< 100 nM	< 100 nM	< 100 nM	< 100 nM	–	–	–	–	–	–	CCN(c1nc(OC[C@@]23CCCN2C[C@H](F)C3)nc2c(F)c(-c3ccc(F)c4sc(N)c(C#N)c34)c(C(F)(F)F)cc12)[C@H]1CCN(C(=O)N(C)C2CC2)C1 (atropisomer, axis not shown) [Compound 583]	–
–	–	–	–	–	–	> 10000 nM	> 10000 nM	–	–	1000 to 10000 nM	1000 to 10000 nM	CCN(c1nc(OC[C@@]23CCCN2C[C@H](F)C3)nc2c(F)c(-c3ccc(F)c4sc(N)c(C#N)c34)c(C(F)(F)F)cc12)[C@H]1CCS(=O)(=O)C1 (atropisomer, axis not shown) [Compound 491]	IC50 (GP2d cells (KRAS G12D)): 100 to 1000 nM; IC50 (SW620 cells (KRAS G12V); SW620 (KRAS G12V) cells): 100 to 1000 nM
< 100 nM	< 100 nM	< 100 nM	< 100 nM	100 to 1000 nM	< 100 nM	–	–	–	–	–	–	CCN(c1nc(OC[C@@]23CCCN2C[C@H](F)C3)nc2c(F)c(-c3ccc(F)c4sc(N)c(C#N)c34)c(C(F)(F)F)cc12)[C@H]1CCN(C(=O)OC2CCC2)C1 (atropisomer, axis not shown) [Compound 802]	–
–	–	–	–	–	–	< 100 nM	< 100 nM	< 100 nM	< 100 nM	< 100 nM	< 100 nM	CCN(c1nc(OC[C@@]23CCCN2C[C@H](F)C3)nc2c(F)c(-c3ccc(F)c4sc(N)c(C#N)c34)c(C(F)(F)F)cc12)[C@H]1CCN(C(=O)C2CCC2)C1 (atropisomer, axis not shown) [Compound 551]	–
100 to 1000 nM	100 to 1000 nM	< 100 nM	< 100 nM	100 to 1000 nM	100 to 1000 nM	–	–	–	–	–	–	CCN(c1nc(OC[C@@]23CCCN2C[C@H](F)C3)nc2c(F)c(-c3ccc(F)c4sc(N)c(C#N)c34)c(C(F)(F)F)cc12)[C@H]1C[C@@H](C)N(C(=O)[C@H](C)OC)C1 (atropisomer, axis not shown) [Compound 753]	–

From US20260042764A1, “COMPOSITIONS AND METHODS FOR INHIBITION OF KRAS” (TheRas, Inc., priority 2022, published 2026)
